Experimental data taken from US11279702B2, “AMPK activators” (Kallyope, Inc., priority 2020, dated 2022).

Legend:
[1] = Concentrations in colon post oral dosing; assay type: in vivo, mouse; details: PO 30 mg/kg
Protocol: A time course for colonic exposure to Compound A1 was determined in mouse following a single bolus oral (PO) gavage of 30 mg/kg of A1. Whole colon from cecum to rectum was collected at 2, 4, 6, and 8 hours post-dose and snap frozen. Tissue was homogenized and the concentration of A1 was measured.

BCRP = BCRP (Homo sapiens (Human), UniProt Q9UNQ0); assay: in vitro; assay type: in vitro ADME; details: for efflux transporter substrate assessment: Caco-2; for Efflux Ratio / Mean Papp (10^−6 cm/s) B to A / Mean Recovery (%) A to B / Mean Recovery (%) B to A / Papp B→A at 2 h, 2 μM / recovery at 2 h, 2 μM: human; for Efflux Ratio / Mean Papp (10^−6 cm/s) B to A / Mean Recovery (%) A to B / Mean Recovery (%) B to A: Caco-2, 2 h, 2 μM, pH 7.4; for Papp B→A at 2 h, 2 μM: Caco-2, pH 7.4, Mean Papp (10^−6 cm/s) B to A
Protocol: Caco-2 cells purchased from ATCC were seeded onto […] (PET) in 96-well BD Insert plates at 1×10^5 cells/cm^2, and refreshed medium every 4-5 days until to the 21st to 28th day for confluent cell monolayer formation. The transport buffer in the study was HBSS with 10 mM HEPES at pH 7.40±0.05. Compounds were tested at 2 μM in the presence or absence of 30 μM novobiocin bi-directionally in duplicate. E3S was tested at 5 μM in the presence or absence of 30 μM novobiocin bi-directionally in duplicate, while nadolol and metoprolol were tested at 2 μM in the absence of novobiocin in A to B direction in duplicate. Final DMSO concentration was adjusted to less than 1%. The plate was incubated for 2 hours in CO2 incubator at 37+1° C., with 5% CO2 at saturated humidity without shaking. All samples were mixed with acetonitrile containing internal standard and were centrifuged at 4000 rpm for 10 min. Subsequently, 100 μL supernatant solution was diluted with 100 μL distilled water for LC/MS/MS analysis. Concentrations of test and control compounds in starting solution, donor solution, and receiver solution were quantified by LC/MS/MS, using peak area ratio of analyte/internal standard.

[2] = tested on: Acetyl CoA Carboxylase (ACC) Phosphorylation in Mouse Muscle; assay: Level of ACC phosphorylation in mouse muscle; assay type: in vivo, C57BL/6J mice
Protocol: Systemic AMPK target engagement in vivo can be assessed by measuring the site-specific phosphorylation of a direct AMPK substrate, acetyl-coenzyme A carboxylase (ACC), in a well perfused tissue such as muscle.
Compounds were formulated in vehicle (0.25% methyl cellulose, 5% Tween 80, 0.02% sodium dodecyl sulfate (SDS) in Hanks' Buffered Salt Solution with Ca^2+ and Mg^2+). Male C57BL/6J mice were administered vehicle or compound once daily for 5 days. On the final day of dosing (day 1 for acute assessment, day 5 for sub-chronic assessment), mice were euthanized by cervical dislocation five hours post dose and samples of skeletal muscle (gastrocnemius) were removed and snap frozen in liquid nitrogen.
Frozen muscle tissues were homogenized. Homogenates were analyzed for protein concentration and equal amounts of protein were assayed for total and phosphorylated ACC (p-ACC) levels using Meso Scale Discovery's Multi-array assay kit. The ratio of p-ACC/total ACC was determined for each sample.

[3] = Caco-2, pH 7.4, Mean Recovery (%) A to B
[4] = Caco-2, pH 7.4, Mean Recovery (%) B to A

Chain of BCRP (Q9UNQ0 whole entry): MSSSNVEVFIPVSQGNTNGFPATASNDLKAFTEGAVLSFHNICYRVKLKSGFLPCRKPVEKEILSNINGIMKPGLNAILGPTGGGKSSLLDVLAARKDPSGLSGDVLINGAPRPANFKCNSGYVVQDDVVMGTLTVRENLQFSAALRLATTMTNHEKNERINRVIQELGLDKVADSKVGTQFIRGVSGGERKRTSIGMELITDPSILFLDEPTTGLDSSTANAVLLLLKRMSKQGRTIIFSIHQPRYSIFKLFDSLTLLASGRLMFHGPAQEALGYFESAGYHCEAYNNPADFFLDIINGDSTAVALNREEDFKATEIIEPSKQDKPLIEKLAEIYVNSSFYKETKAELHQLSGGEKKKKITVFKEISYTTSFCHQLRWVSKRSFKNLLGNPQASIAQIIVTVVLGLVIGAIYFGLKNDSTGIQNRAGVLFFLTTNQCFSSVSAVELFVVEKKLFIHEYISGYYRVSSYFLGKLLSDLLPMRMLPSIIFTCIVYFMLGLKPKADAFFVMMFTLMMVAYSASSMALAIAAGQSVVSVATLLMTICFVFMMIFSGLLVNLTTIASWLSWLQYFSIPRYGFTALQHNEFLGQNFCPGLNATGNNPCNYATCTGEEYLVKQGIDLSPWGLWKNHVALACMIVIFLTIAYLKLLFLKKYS

| colonic exposure profile ([1]; 2 to 8 hours post-dose) [µM] | concentration in colon ([1]; 2 h post dosing) [µM] | concentration in colon ([1]; 4 h post dosing) [µM] | concentration in colon ([1]; 6 h post dosing) [µM] | concentration in colon ([1]; 8 h post dosing) [µM] | Efflux Ratio (BCRP) | Mean Papp (10^−6 cm/s) B to A (BCRP) | Mean Recovery (%) A to B (BCRP) [%] | Mean Recovery (%) B to A (BCRP) [%] | Papp B→A at 2 h, 2 μM (BCRP) [×10⁻⁶ cm/s] | recovery at 2 h, 2 μM (BCRP; [3]) [%] | recovery at 2 h, 2 μM (BCRP; [4]) [%] | ratio of pACC/total ACC compared with vehicle control mice ([2]; 30 mg/kg, one-way ANOVA vs vehicle (Dunnett's post-test)) | SMILES | efflux transporter substrate assessment (BCRP) | % p-ACC/ACC ratio change vs. Vehicle, Sub-chronic (5 days) ([2]; 30 mg/kg once daily for 5 days, five hours post dose, gastrocnemius) [%] | % p-ACC/ACC ratio change vs. Vehicle, Acute (5 hr) ([2]; 30 mg/kg, day 1, five hours post dose, gastrocnemius) [%] |
| --- | --- | --- | --- | --- | --- | --- | --- | --- | --- | --- | --- | --- | --- | --- | --- | --- |
| 122 to 255 | 254 | 122 | 128 | 205 | 55.54 | 9.16 10^−6 cm/s | 61.16 | 78.94 | 17.1 | < 65.6 | 77.4 | – | O=C(O)CSc1nc2cc(-c3ccc(-c4ccccc4O)cc3)c(Cl)cc2[nH]1 [Compound A1] | likely substrates of intestinal efflux transporters | – | – |
| – | – | – | – | – | 44.89 | 6.98 10^−6 cm/s | 69.40 | 82.75 | 12.7 | < 68.8 | 79.5 | not significantly changed | O=C(O)CSc1nc2nc(-c3ccc(-c4ccccc4O)cc3)c(Cl)cc2[nH]1 [Compound 1, 2-((6-chloro-5-(2′-hydroxy-[1,1′-biphenyl]-4-yl)-1H-imidazo[4,5-b]pyridin-2-yl)thio)acetic Acid] | likely substrates of intestinal efflux transporters | 29.6 | 6.6 |
